Reference: US6239171A, “Tocotrienols and tocotrienol-like compounds and methods for their use” (Lipogenics, Inc., priority 1998, dated 2001)

Experiments:
Assay type in all cases: in vivo, chicken
[1] = tested on: cholesterol 7α-hydroxylase; assay: Hepatic cholesterol 7α-hydroxylase activity in chickens fed supplemented diets; details: 4 weeks
Protocol: (§1) This example measured the effects of the TRF and its components on the hepatic enzymatic activity of HMG-CoA reductase and cholesterol 7α-hydroxylase. […] The amount of feed consumed ranged from 11.19-11.60 g per chicken and the feeding period was 4 weeks. The birds were fasted for a period of 36 hours and refed for 48 hours prior to sacrifice (at 0800 hours).

[2] = biological target: T1, HMG-CoA reductase (Homo sapiens, UniProt P04035); assay: Hepatic HMG-CoA reductase activity in chickens fed supplemented diets; details: 4 weeks
T1 construct: hepatocytes isolated from livers of 8-week old female chickens; endogenous in cells; host or cells: primary chicken hepatocytes
T1 sequence (P04035 1-888): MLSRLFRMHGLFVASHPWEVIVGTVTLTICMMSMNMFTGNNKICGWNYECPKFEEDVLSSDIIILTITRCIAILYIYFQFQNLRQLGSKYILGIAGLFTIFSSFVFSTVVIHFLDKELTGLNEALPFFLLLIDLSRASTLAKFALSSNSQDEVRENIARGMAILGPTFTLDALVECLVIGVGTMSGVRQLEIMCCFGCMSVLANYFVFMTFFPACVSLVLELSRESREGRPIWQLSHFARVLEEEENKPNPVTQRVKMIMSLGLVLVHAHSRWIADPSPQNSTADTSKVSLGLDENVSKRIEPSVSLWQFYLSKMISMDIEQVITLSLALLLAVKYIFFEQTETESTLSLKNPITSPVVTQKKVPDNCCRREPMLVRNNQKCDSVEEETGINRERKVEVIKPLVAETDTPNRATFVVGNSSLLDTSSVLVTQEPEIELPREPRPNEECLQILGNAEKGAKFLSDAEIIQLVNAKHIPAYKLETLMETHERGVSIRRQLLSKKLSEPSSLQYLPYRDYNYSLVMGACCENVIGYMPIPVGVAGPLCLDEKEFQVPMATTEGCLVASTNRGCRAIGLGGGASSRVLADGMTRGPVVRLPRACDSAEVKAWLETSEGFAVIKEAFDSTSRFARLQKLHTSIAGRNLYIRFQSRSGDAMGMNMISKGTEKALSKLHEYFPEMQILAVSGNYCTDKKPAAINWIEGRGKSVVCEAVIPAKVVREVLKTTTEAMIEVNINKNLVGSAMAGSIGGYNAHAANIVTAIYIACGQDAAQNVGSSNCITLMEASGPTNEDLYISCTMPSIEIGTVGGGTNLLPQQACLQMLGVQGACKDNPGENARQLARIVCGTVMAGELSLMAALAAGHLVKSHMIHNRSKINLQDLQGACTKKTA
Protocol: as §1

[3] = tested on: chickens; assay: Plasma thromboxane B2 and platelet factor 4 in chickens fed supplemented diets; details: 4 weeks
Text: We next measured the effects of TRF and its components on serum levels of apolipoprotein (a)1, apolipoprotein B, triglycerides and glucose and the plasma levels of thromboxane B2 and platelet factor 4.

[4] = tested on: chickens; assay: Serum cholesterol, apolipoproteins, triglycerides and glucose in chickens fed supplemented diets; details: 4 weeks; for increase in the HDL-/LDL-cholesterol ratio / reduction of serum cholesterol: 100 ppm in diet
Text: All assays conducted on chicken or swine serum were done following the protocols described in A. A. Qureshi et al., "Lowering Of Serum Cholesterol In Hypercholesterolemic Humans By Tocotrienols" (Palmvitee), Am. J. Clin. Nutr., 53, pp. 1021S-26S (1991). All enzymatic assays were done following the protocols described in A. A. Qureshi et al., "Effects of Cereals and Culture Filtrate of Trichoderma viride on Lipid Metabolism of Swine", Lipids, 17, pp. 924 (1982). Plasma insulin, glucagon and TNF levels were measured using radioinnumoassay kits from Ventrex Laboratories, Inc. (Portland, Me.), ICN Biomedicals, Inc. (Costa Mesa, Calif.) and Genzyme Corp. (Cambridge, Mass.), respectively. […]
Each group of 6 chickens (6-week old female while leghorn) was administered the chick mash diet described in Example 5, supplemented with one of three different amounts of waxes (sterols), 50 ppm of TRF (prepared as in Example 2) or 5% equivalent of the methanol insoluble fraction Louisiana rice bran oil. […] The birds were fasted for a period of 14 hours prior to sacrifice (at 0800 hours). […]

[5] = tested on: chickens; assay: Antibody titers to sheep red blood cells in chickens; details: 4 weeks, sheep red blood cells i.p.
Protocol: The model for this study was 6-week old female white leghorn chickens. Each group of 12 chickens was fed an unsupplemented chicken diet or a control diet supplemented with 50 ppm of a tocotrienol or 100 ppm of a commercially available hypercholesterolemic agent (Geraniol or Lovastatin). […] The chickens were fed over a period of 4 weeks, then the blood was drawn. The antibody response was determined by injecting the chickens i.p. with 0.5 ml of a 5% suspension of sheep red blood cells (RBCs) in PBS (v/v) which were previously washed three times. […] Relative IgG levels were determined by using 2-mercaptoethanol preincubation for 30 min. The relative IgM levels were calculated by subtracting the IgG antibody levels from total antibody levels. All antibody levels are expressed as the log base 2 of the highest titer that was needed to hemagglutinate an equal volume of 0.5% RBC suspension.

CC(C)=CCC/C(C)=C/CO [Geraniol]
Cholesterol 7α-Hydroxylase, percentage of control ([1]; control diet + 100 ppm): 100.59%
Cholesterol 7α-hydroxylase ([1]; control diet + 100 ppm): 10.28 nmol/min/mg
HMG-CoA Reductase, percentage of control ([2]; control diet + 100 ppm): 87.65%
Platelet Factor 4 ([3]; control diet + 100 ppm): 12.38 ng/mL
Platelet Factor 4, percentage of control ([3]; control diet + 100 ppm): 94.57%
Thromboxane B2 ([3]; control diet + 100 ppm): 25.46 pg/mL
Thromboxane B2, percentage of control ([3]; control diet + 100 ppm): 98.53%
increase in the HDL-/LDL-cholesterol ratio [4]: ≤ 31.5%
reduction of serum cholesterol [4]: 14%
APO A1, percentage of control ([4]; control diet + 100 ppm): 98.58%
APO A1 in serum ([4]; control diet + 100 ppm): 138.40 mg/100 ml
APO B in serum ([4]; control diet + 100 ppm): 29.20 mg/100 ml
APO B, percentage of control ([4]; control diet + 100 ppm): 88.22%
DL-Cholesterol/Total Cholesterol ([4]; control diet + 100 ppm): 0.65
DL-Cholesterol/Total Cholesterol, percentage of control ([4]; control diet + 100 ppm): 110.10%
Glucose in serum ([4]; control diet + 100 ppm): 227.60 mg/100 ml
Glucose, percentage of control ([4]; control diet + 100 ppm): 101.47%
HDL-Cholesterol in serum ([4]; control diet + 100 ppm): 82.28 ± 1.06 mg/dL
HDL-Cholesterol, percentage of control ([4]; control diet + 100 ppm): 98.35%
HDL-Cholesterol/LDL-Cholesterol ([4]; control diet + 100 ppm): 2.00
HDL-Cholesterol/LDL-Cholesterol, percentage of control ([4]; control diet + 100 ppm): 131.50%
LDL-Cholesterol in serum ([4]; control diet + 100 ppm): 41.07 ± 1.13 mg/dL
LDL-Cholesterol, percentage of control ([4]; control diet + 100 ppm): 96.30%
Total Cholesterol in serum ([4]; control diet + 100 ppm): 122.53 ± 1.37 mg/dL
Total Cholesterol, percentage of control ([4]; control diet + 100 ppm): 85.82%
Triglycerides in serum ([4]; control diet + 100 ppm): 71.29 mg/100 ml
Triglycerides, percentage of control ([4]; control diet + 100 ppm): 96.30%
IgG antibody titers in serum ([5]; control diet + 100 ppm): 1.00 ± 0.00 Log 2
IgM antibody titers in serum ([5]; control diet + 100 ppm): 5.42 Log 2
Total Ab titers in serum ([5]; control diet + 100 ppm): 5.60 ± 2.11 Log 2

CC[C@H](C)C(=O)O[C@H]1C[C@@H](C)C=C2C=C[C@H](C)[C@H](CC[C@@H]3C[C@@H](O)CC(=O)O3)[C@H]21 [Lovastatin]
Cholesterol 7α-Hydroxylase, percentage of control ([1]; control diet + 100 ppm): 110.96%
Cholesterol 7α-hydroxylase ([1]; control diet + 100 ppm): 11.34 nmol/min/mg
Platelet Factor 4 ([3]; control diet + 100 ppm): 12.24 ng/mL
Platelet Factor 4, percentage of control ([3]; control diet + 100 ppm): 93.51%
Thromboxane B2 ([3]; control diet + 100 ppm): 24.89 pg/mL
Thromboxane B2, percentage of control ([3]; control diet + 100 ppm): 96.32%
increase in the HDL-/LDL-cholesterol ratio [4]: ≤ 31.5%
reduction of serum cholesterol [4]: 10%
APO A1, percentage of control ([4]; control diet + 100 ppm): 99.29%
APO A1 in serum ([4]; control diet + 100 ppm): 139.9 mg/100 ml
APO B in serum ([4]; control diet + 100 ppm): 25.80 mg/100 ml
APO B, percentage of control ([4]; control diet + 100 ppm): 77.95%
DL-Cholesterol/Total Cholesterol ([4]; control diet + 100 ppm): 0.63
DL-Cholesterol/Total Cholesterol, percentage of control ([4]; control diet + 100 ppm): 108.00%
Glucose in serum ([4]; control diet + 100 ppm): 220.10 mg/100 ml
Glucose, percentage of control ([4]; control diet + 100 ppm): 98.13%
HDL-Cholesterol in serum ([4]; control diet + 100 ppm): 81.38 ± 0.73 mg/dL
HDL-Cholesterol, percentage of control ([4]; control diet + 100 ppm): 97.28%
HDL-Cholesterol/LDL-Cholesterol ([4]; control diet + 100 ppm): 1.84
HDL-Cholesterol/LDL-Cholesterol, percentage of control ([4]; control diet + 100 ppm): 121.40%
LDL-Cholesterol in serum ([4]; control diet + 100 ppm): 44.12 ± 1.26 mg/dL
LDL-Cholesterol, percentage of control ([4]; control diet + 100 ppm): 86.51%
Total Cholesterol in serum ([4]; control diet + 100 ppm): 128.65 ± 1.02 mg/dL
Total Cholesterol, percentage of control ([4]; control diet + 100 ppm): 90.11%
Triglycerides in serum ([4]; control diet + 100 ppm): 64.04 mg/100 ml
Triglycerides, percentage of control ([4]; control diet + 100 ppm): 86.51%
IgG antibody titers in serum ([5]; control diet + 100 ppm): 1.00 ± 0.00 Log 2
IgM antibody titers in serum ([5]; control diet + 100 ppm): 5.90 Log 2
Total Ab titers in serum ([5]; control diet + 100 ppm): 6.33 ± 1.44 Log 2

CC(C)=CCC/C(C)=C/CC/C(C)=C/CCC1(C)CCc2cc(O)cc(C)c2O1 (stereo not drawn) [δ-T3, δ-tocotrienol]
Cholesterol 7α-Hydroxylase, percentage of control ([1]; control diet + 50 ppm): 107.44%
Cholesterol 7α-hydroxylase ([1]; control diet + 50 ppm): 10.98 nmol/min/mg
HMG-CoA Reductase, percentage of control ([2]; control diet + 50 ppm): 75.83%
Platelet Factor 4 ([3]; control diet + 50 ppm): 8.23 ng/mL
Platelet Factor 4, percentage of control ([3]; control diet + 50 ppm): 62.87%
Thromboxane B2 ([3]; control diet + 50 ppm): 18.65 pg/mL
Thromboxane B2, percentage of control ([3]; control diet + 50 ppm): 72.17%
APO A1, percentage of control ([4]; control diet + 50 ppm): 99.22%
APO A1 in serum ([4]; control diet + 50 ppm): 139.30 mg/100 ml
APO B in serum ([4]; control diet + 50 ppm): 27.30 mg/100 ml
APO B, percentage of control ([4]; control diet + 50 ppm): 82.48%
DL-Cholesterol/Total Cholesterol ([4]; control diet + 50 ppm): 0.65
DL-Cholesterol/Total Cholesterol, percentage of control ([4]; control diet + 50 ppm): 111.30%
Glucose in serum ([4]; control diet + 50 ppm): 205.30 mg/100 ml
Glucose, percentage of control ([4]; control diet + 50 ppm): 91.53%
HDL-Cholesterol in serum ([4]; control diet + 50 ppm): 77.78 ± 0.97 mg/dL
HDL-Cholesterol, percentage of control ([4]; control diet + 50 ppm): 93.08%
HDL-Cholesterol/LDL-Cholesterol ([4]; control diet + 50 ppm): 2.15
HDL-Cholesterol/LDL-Cholesterol, percentage of control ([4]; control diet + 50 ppm): 141.80%
LDL-Cholesterol in serum ([4]; control diet + 50 ppm): 36.14 ± 0.97 mg/dL
LDL-Cholesterol, percentage of control ([4]; control diet + 50 ppm): 65.64%
Total Cholesterol in serum ([4]; control diet + 50 ppm): 119.40 ± 1.41 mg/dL
Total Cholesterol, percentage of control ([4]; control diet + 50 ppm): 83.63%
Triglycerides in serum ([4]; control diet + 50 ppm): 60.50 mg/100 ml
Triglycerides, percentage of control ([4]; control diet + 50 ppm): 81.72%
IgG antibody titers in serum ([5]; control diet + 50 ppm): 1.00 Log 2
IgM antibody titers in serum ([5]; control diet + 50 ppm): 8.25 ± 1.96 Log 2
Total Ab titers in serum ([5]; control diet + 50 ppm): 8.67 ± 1.78 Log 2
